For 22 compounds, IC50 results are on record in patent US10947210B2 (priority 2015, dated 2021).

As usually defined, the IC50 is the midpoint of a concentration-inhibition curve.

Each structure is given as a SMILES string.

Sequence of HCV RNA-dependent RNA polymerase (NS5B) (P26663 2420-3010): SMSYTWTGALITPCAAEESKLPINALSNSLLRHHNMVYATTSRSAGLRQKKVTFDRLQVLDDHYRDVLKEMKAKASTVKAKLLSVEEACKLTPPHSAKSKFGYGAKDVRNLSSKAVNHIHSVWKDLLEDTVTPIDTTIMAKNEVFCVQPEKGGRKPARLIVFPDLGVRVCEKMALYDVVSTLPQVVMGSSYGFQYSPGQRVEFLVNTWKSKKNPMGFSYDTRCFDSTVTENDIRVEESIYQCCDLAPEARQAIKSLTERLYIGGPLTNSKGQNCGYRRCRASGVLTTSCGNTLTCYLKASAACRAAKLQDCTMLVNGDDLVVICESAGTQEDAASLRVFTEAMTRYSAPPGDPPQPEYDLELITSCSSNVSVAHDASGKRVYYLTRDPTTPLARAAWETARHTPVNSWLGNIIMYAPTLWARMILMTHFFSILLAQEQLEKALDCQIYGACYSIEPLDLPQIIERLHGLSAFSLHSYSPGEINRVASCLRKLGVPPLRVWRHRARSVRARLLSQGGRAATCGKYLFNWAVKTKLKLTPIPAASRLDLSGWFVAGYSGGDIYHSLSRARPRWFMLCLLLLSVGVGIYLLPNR

The assay concerns the target HCV RNA-dependent RNA polymerase (NS5B) (Hepatitis C virus genotype 1b (isolate BK) (HCV), UniProt P26663). Put plainly: RNA-Dependent RNA HCV NS5B (polymerase) Assay and IC50 Determination. In kind it is biochemical. The following applies: purified HCV NS5B polymerase, polyA:U16 substrate, 32P-UTP incorporation; read-out: IC50. Here is the method: RNA-Dependent RNA HCV NS5B (polymerase) Assay and IC50 Determination.
The reaction mixtures consisted of 50 mM Hepes-KOH, pH 7.5, 5 mM MgCl2, 5 mM DTT, 2% glycerol, 0.01% Triton® X-100, 0.5 uM polyA:U16 substrate, purified HCV RNA-dependent RNA polymerase, 10 μM UTP, and ^32P-UTP (Perkin Elmer). The reaction mixtures incubated at 30° C. for 60 minutes, and then filtered through Zeta probe membrane (BioRad). The filter was washed with 5×SSC (75 mM sodium citrate, pH 7 and 750 mM NaCl), and the radiolabeled RNA products were quantitated by microbeta (Perkin Elmer). For IC50 determination, different concentrations of inhibitors were added to the polymerase reaction mixtures, and incubated at 37° C. for 60 minutes. IC50 values were determined using GraFit (Erithaus software).
Table 1 presents IC50 data obtained using the biochemical assay to test representative compounds. Data are presented as follows: “+++” means <0.1 μM; “++” means ≥0.1 μM but <1.0 μM; “+” means ≥1.0 μM.
Regarding `CNC(=O)c1c(-c2ccc(F)cc2)oc2cc(N(CCOCCOCc3ccc(OC)c(C(=O)OC)c3)S(C)(=O)=O)c(C3CC3)cc12` [Compound 30-11, 5-[2-(2-{[5-Cyclopropyl-2-(4-fluoro-phenyl)-3-methylcarbamoyl-benzofuran-6-yl]-methanesulfonyl-amino}-ethoxy)-ethoxymethyl]-2-methoxy-benzoic acid methyl ester], the IC50 was over 1000 nM.
`CNC(=O)c1c(-c2ccc(F)cc2)oc2cc(N(CCOCCOCc3cccc(C(=O)OC)c3)S(C)(=O)=O)c(C3CC3)cc12` [Compound 06-6C, 3-[2-(2-{[5-Cyclopropyl-2-(4-fluoro-phenyl)-3-methylcarbamoyl-benzofuran-6-yl]-methanesulfonyl-amino}-ethoxy)-ethoxymethyl]-benzoic acid methyl ester]: the 50% inhibitory concentration (IC50) is over 1000 nM.
As to `CNC(=O)c1c(-c2ccc(F)cc2)oc2cc(N(CCOCCCCCOCC(=O)O)S(C)(=O)=O)c(C3CC3)cc12` [Compound 27-9A, [5-(2-{[5-Cyclopropyl-2-(4-fluoro-phenyl)-3-methylcarbamoyl-benzofuran-6-yl]-methanesulfonyl-amino}-ethoxy)-pentyloxy]-acetic Acid], the IC50 lay in the range of 100 to 1000 nM.
Take `CNC(=O)c1c(-c2ccc(F)cc2)oc2cc(N(CCOCCOCCOCCOCc3ccc(C(C)=O)cc3)S(C)(=O)=O)c(C3CC3)cc12` [Compound 02-8H, 6-{[2-(2-{2-[2-(4-Acetyl-benzyloxy)-ethoxy]-ethoxy}-ethoxy)-ethyl]-methanesulfonyl-amino}-5-cyclopropyl-2-(4-fluoro-phenyl)-benzofuran-3-carboxylic Acid Methylamide]: the IC50 was over 1000 nM.
For `CNC(=O)c1c(-c2ccc(F)cc2)oc2cc(N(CCOCCOCCOc3ccccc3C(=O)O)S(C)(=O)=O)c(C3CC3)cc12` [Compound 14-7A, 2-{2-[2-(2-{[5-Cyclopropyl-2-(4-fluoro-phenyl)-3-methylcarbamoyl-benzofuran-6-yl]-methanesulfonyl-amino}-ethoxy)-ethoxy]-ethoxy}-benzoic Acid], the IC50 was under 100 nM.
Next, `CNC(=O)c1c(-c2ccc(F)cc2)oc2cc(N(CCOCCOCc3ccccc3C(=O)OC)S(C)(=O)=O)c(C3CC3)cc12` [Compound 06-6A, 2-[2-(2-{[5-Cyclopropyl-2-(4-fluoro-phenyl)-3-methylcarbamoyl-benzofuran-6-yl]-methanesulfonyl-amino}-ethoxy)-ethoxymethyl]-benzoic Acid Methyl Ester]: 100 to 1000 nM.
Next, `CNC(=O)c1c(-c2ccc(F)cc2)oc2cc(N(CCOCCOCCOCCOCCOCCOCc3cccc(C(C)=O)c3)S(C)(=O)=O)c(C3CC3)cc12` [Compound 02-8E, 6-[(2-{2-[2-(2-{2-[2-(3-Acetyl-benzyloxy)-ethoxy]-ethoxy}-ethoxy)-ethoxy]-ethoxy}-ethyl)-methanesulfonyl-amino]-5-cyclopropyl-2-(4-fluoro-phenyl)-benzofuran-3-carboxylic Acid Methylamide]: over 1000 nM; `CNC(=O)c1c(-c2ccc(F)cc2)oc2cc(N(CCOCCOCCOC(C)(C)C(=O)NO)S(C)(=O)=O)c(C3CC3)cc12` [Compound 26-8B, 5-Cyclopropyl-2-(4-fluoro-phenyl)-6-[(2-{2-[2-(1-hydroxycarbamoyl-1-methyl-ethoxy)-ethoxy]-ethoxy}-ethyl)-methanesulfonyl-amino]-benzofuran-3-carboxylic Acid Methylamide]: over 1000 nM; `CNC(=O)c1c(-c2ccc(F)cc2)oc2cc(N(CCOCCOCCOCCCCCc3cccc(C(=O)CC(=O)C(=O)O)c3)S(C)(=O)=O)c(C3CC3)cc12` [Compound 30-15, 4-[3-(5-{2-[2-(2-{[5-Cyclopropyl-2-(4-fluoro-phenyl)-3-methylcarbamoyl-benzofuran-6-yl]-methanesulfonyl-amino}-ethoxy)-ethoxy]-ethoxy}-pentyl)-phenyl]-2,4-dioxo-butyric acid]: over 1000 nM.
Next, `CNC(=O)c1c(-c2ccc(F)cc2)oc2cc(N(CCOCCOCCOCc3cccc(C(=O)/C=C(\O)C(=O)O)c3)S(C)(=O)=O)c(C3CC3)cc12` [Compound 02-10B, 4-(3-{2-[2-(2-{[5-Cyclopropyl-2-(4-fluoro-phenyl)-3-methylcarbamoyl-benzofuran-6-yl]-methanesulfonyl-amino}-ethoxy)-ethoxy]-ethoxymethyl}-phenyl)-2-hydroxy-4-oxo-but-2-enoic Acid]: over 1000 nM; `CNC(=O)c1c(-c2ccc(F)cc2)oc2cc(N(CCOCCCCOc3cccc(C(=O)CC(=O)C(=O)O)c3)S(C)(=O)=O)c(C3CC3)cc12` [Compound 30-9, 4-{3-[4-(2-{[5-Cyclopropyl-2-(4-fluoro-phenyl)-3-methylcarbamoyl-benzofuran-6-yl]-methanesulfonyl-amino}-ethoxy)-butoxy]-phenyl}-2,4-dioxo-butyric acid]: over 1000 nM; `CNC(=O)c1c(-c2ccc(F)cc2)oc2cc(N(CCOCCOCCOC3(C(=O)O)CCCC3)S(C)(=O)=O)c(C3CC3)cc12` [Compound 26-7A, 1-{2-[2-(2-{[5-Cyclopropyl-2-(4-fluoro-phenyl)-3-methylcarbamoyl-benzofuran-6-yl]-methanesulfonyl-amino}-ethoxy)-ethoxy]-ethoxy}-cyclopentanecarboxylic Acid]: under 100 nM.
With `CCOC(=O)COC(=O)c1ccc(COCCOCCN(c2cc3oc(-c4ccc(F)cc4)c(C(=O)NC)c3cc2C2CC2)S(C)(=O)=O)cc1` [Compound 06-8B8, 4-[2-(2-{[5-Cyclopropyl-2-(4-fluoro-phenyl)-3-methylcarbamoyl-benzofuran-6-yl]-methanesulfonyl-amino}-ethoxy)-ethoxymethyl]-benzoic Acid Ethoxycarbonylmethyl Ester], the IC50 lay within 100 to 1000 nM.
For `CNC(=O)c1c(-c2ccc(F)cc2)oc2cc(N(CCOCCOCCOCC(C)=O)S(C)(=O)=O)c(C3CC3)cc12` [Compound 30-1, 5-Cyclopropyl-2-(4-fluoro-phenyl)-6-[methanesulfonyl-(2-{2-[2-(2-oxo-propoxy)-ethoxy]-ethoxy}-ethyl)-amino]-benzofuran-3-carboxylic acid methylamide], the IC50 is over 1000 nM.
As for `CNC(=O)c1c(-c2ccc(F)cc2)oc2cc(N(CCOCCOCCOCCOC)S(C)(=O)=O)c(C3CC3)cc12` [Compound 05-4A, 6-(N-(2,5,8,11-Tetraoxatridecan-13-yl)-methylsulfonamido)-5-cyclopropyl-2-(4-fluorophenyl)-N-methylbenzofuran-3-carboxamide], the IC50 is over 1000 nM.
On to `CNC(=O)c1c(-c2ccc(F)cc2)oc2cc(N(CCCOCCCc3ccc(C(=O)O)cc3)S(C)(=O)=O)c(C3CC3)cc12` [Compound 13-8B, 4-[3-(3-{[5-Cyclopropyl-2-(4-fluoro-phenyl)-3-methylcarbamoyl-benzofuran-6-yl]-methanesulfonyl-amino}-propoxy)-propyl]-benzoic Acid], for which the IC50 was in the range of 100 to 1000 nM.
As for `CNC(=O)c1c(-c2ccc(F)cc2)oc2cc(N(CC(=O)NCC(=O)NCCCC(C)C(=O)O)S(C)(=O)=O)c(C3CC3)cc12` (stereo not shown) [Compound 10-4B, 5-[2-(2-{[5-Cyclopropyl-2-(4-fluoro-phenyl)-3-methylcarbamoyl-benzofuran-6-yl]-methanesulfonyl-amino}-acetylamino)-acetylamino]-2-methyl-pentanoic Acid], the figure is over 1000 nM; as for `CNC(=O)c1c(-c2ccc(F)cc2)oc2cc(N(CCOCCOCCOC3(C(=O)OC(C)(C)C)CCCC3)S(C)(=O)=O)c(C3CC3)cc12` [Compound 26-6A], over 1000 nM; as for `CNC(=O)c1c(-c2ccc(F)cc2)oc2cc(N(CCOCCOCc3ccc(C(=O)O)c([N+](=O)[O-])c3)S(C)(=O)=O)c(C3CC3)cc12` [Compound 29-8, 4-[2-(2-{[5-Cyclopropyl-2-(4-fluoro-phenyl)-3-methylcarbamoyl-benzofuran-6-yl]-methanesulfonyl-amino}-ethoxy)-ethoxymethyl]-2-nitro-benzoic Acid], 100 to 1000 nM.
Next, `CNC(=O)c1c(-c2ccc(F)cc2)oc2cc(N(CCCOCCOCc3cccc(C(C)=O)c3)S(C)(=O)=O)c(C3CC3)cc12` [Compound 03-6A, 6-(N-(3-(2-((3-acetylbenzyl)-oxy)-ethoxy)-propyl)-methylsulfonamido)-5-cyclopropyl-2-(4-fluorophenyl)-N-methylbenzofuran-3-carboxamide]: over 1000 nM.
Next, `CNC(=O)c1c(-c2ccc(F)cc2)oc2cc(N(CCOCCOCCOCc3cccc(C(=O)OC)c3)S(C)(=O)=O)c(C3CC3)cc12` [Compound 06-6F, 3-{2-[2-(2-{[5-Cyclopropyl-2-(4-fluoro-phenyl)-3-methylcarbamoyl-benzofuran-6-yl]-methanesulfonyl-amino}-ethoxy)-ethoxy]-ethoxymethyl}-benzoic acid methyl ester]: over 1000 nM; `CNC(=O)c1c(-c2ccc(F)cc2)oc2cc(N(CCOCCOCCOCCCCc3cccc(C(=O)CC(=O)C(=O)O)c3)S(C)(=O)=O)c(C3CC3)cc12` [Compound 30-16, 4-[3-(4-{2-[2-(2-{[5-Cyclopropyl-2-(4-fluoro-phenyl)-3-methylcarbamoyl-benzofuran-6-yl]-methanesulfonyl-amino}-ethoxy)-ethoxy]-ethoxy}-butyl)-phenyl]-2,4-dioxo-butyric acid]: over 1000 nM.
